In PubChem BioAssay (NCI):
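Dose response: 5 concentrations. Exposure: 48 h. Format: 96-well plates. Endpoint: linear interpolation; highest concentration if not reached. At the TGI there is no net growth.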

How the values were obtained:
Experiment in all cases: DTP human tumour cell line panel, 48 h
HCT-15 colon = test system: HCT-15 colon
HOP-92 NSCLC = test system: HOP-92 NSCLC
HL-60(TB) leukemia = test system: HL-60(TB) leukemia
UO-31 renal = test system: UO-31 renal
SK-MEL-28 melanoma = test system: SK-MEL-28 melanoma
UACC-257 melanoma = test system: UACC-257 melanoma
SK-MEL-5 melanoma = test system: SK-MEL-5 melanoma
IGROV1 ovarian = test system: IGROV1 ovarian
NCI-H226 lung = test system: NCI-H226 lung
NCI/ADR-RES ovarian = test system: NCI/ADR-RES ovarian
SN12C renal = test system: SN12C renal
NCI-H522 lung = test system: NCI-H522 lung
COLO 205 colon = test system: COLO 205 colon
UACC-62 melanoma = test system: UACC-62 melanoma
NCI-H460 lung = test system: NCI-H460 lung
MOLT-4 leukemia = test system: MOLT-4 leukemia
ACHN renal = test system: ACHN renal
HCT-116 colon = test system: HCT-116 colon
RPMI-8226 leukemia = test system: RPMI-8226 leukemia
SW-620 colon = test system: SW-620 colon
LOX IMVI melanoma = test system: LOX IMVI melanoma
SK-OV-3 ovarian = test system: SK-OV-3 ovarian
BT-549 breast = test system: BT-549 breast
MALME-3M melanoma = test system: MALME-3M melanoma
HOP-62 NSCLC = test system: HOP-62 NSCLC
CCRF-CEM leukemia = test system: CCRF-CEM leukemia
OVCAR-3 ovarian = test system: OVCAR-3 ovarian
786-0 renal = test system: 786-0 renal
U251 CNS = test system: U251 CNS
SF-268 CNS = test system: SF-268 CNS
A498 renal = test system: A498 renal
SNB-75 CNS = test system: SNB-75 CNS
OVCAR-5 ovarian = test system: OVCAR-5 ovarian
SF-295 CNS = test system: SF-295 CNS
MCF7 breast = test system: MCF7 breast
A549 NSCLC = test system: A549 NSCLC
SR leukemia = test system: SR leukemia
MDA-N = test system: MDA-N
HT29 colon = test system: HT29 colon
K-562 leukemia = test system: K-562 leukemia
OVCAR-4 ovarian = test system: OVCAR-4 ovarian
SNB-19 CNS = test system: SNB-19 CNS
DU-145 prostate = test system: DU-145 prostate
HCC-2998 colon = test system: HCC-2998 colon
CAKI-1 renal = test system: CAKI-1 renal
SK-MEL-2 melanoma = test system: SK-MEL-2 melanoma
TK-10 renal = test system: TK-10 renal
HS 578T breast = test system: HS 578T breast
OVCAR-8 ovarian = test system: OVCAR-8 ovarian
SF-539 CNS = test system: SF-539 CNS
NCI-H23 lung = test system: NCI-H23 lung
KM12 colon = test system: KM12 colon
RXF 393 renal = test system: RXF 393 renal
PC-3 prostate = test system: PC-3 prostate
M14 melanoma = test system: M14 melanoma
MDA-MB-435 = test system: MDA-MB-435
EKVX NSCLC = test system: EKVX NSCLC
MDA-MB-231 breast = test system: MDA-MB-231 breast
T-47D breast = test system: T-47D breast

COC(=O)c1cc2c3c(c1)Oc1cc(C(=O)OC)cc4c1C3c1c(cc(C(=O)OC)cc1O4)O2
TGI (HCT-15 colon): > 100 µM | TGI (HOP-92 NSCLC): > 31.6 µM | TGI (HL-60(TB) leukemia): > 29.3 µM | TGI (UO-31 renal): > 100 µM | TGI (SK-MEL-28 melanoma): > 100 µM | TGI (UACC-257 melanoma): > 100 µM | TGI (SK-MEL-5 melanoma): 14.3 µM | TGI (IGROV1 ovarian): 26.5 µM | TGI (NCI-H226 lung): 13.6 µM | TGI (NCI/ADR-RES ovarian): 13 µM | TGI (SN12C renal): > 100 µM | TGI (NCI-H522 lung): 15.5 µM | TGI (COLO 205 colon): > 91.5 µM | TGI (UACC-62 melanoma): > 75.5 µM | TGI (NCI-H460 lung): > 100 µM | TGI (MOLT-4 leukemia): > 100 µM | TGI (ACHN renal): 26.2 µM | TGI (HCT-116 colon): > 100 µM | TGI (RPMI-8226 leukemia): > 100 µM | TGI (SW-620 colon): > 100 µM | TGI (LOX IMVI melanoma): > 46.1 µM | TGI (SK-OV-3 ovarian): 42.4 µM | TGI (BT-549 breast): > 100 µM | TGI (MALME-3M melanoma): 37.2 µM | TGI (HOP-62 NSCLC): 23.5 µM | TGI (CCRF-CEM leukemia): 96.9 µM | TGI (OVCAR-3 ovarian): 33 µM | TGI (786-0 renal): 23 µM | TGI (U251 CNS): 41.8 µM | TGI (SF-268 CNS): 30 µM | TGI (A498 renal): > 94.6 µM | TGI (SNB-75 CNS): 20 µM | TGI (OVCAR-5 ovarian): > 66.1 µM | TGI (SF-295 CNS): 26.4 µM | TGI (MCF7 breast): > 56.3 µM | TGI (A549 NSCLC): > 48.3 µM | TGI (SR leukemia): > 100 µM | TGI (MDA-N): > 100 µM | TGI (HT29 colon): 38.3 µM | TGI (K-562 leukemia): > 100 µM | TGI (OVCAR-4 ovarian): > 100 µM | TGI (SNB-19 CNS): > 62.9 µM | TGI (DU-145 prostate): > 41.3 µM | TGI (HCC-2998 colon): > 100 µM | TGI (CAKI-1 renal): 27.8 µM | TGI (SK-MEL-2 melanoma): > 100 µM | TGI (TK-10 renal): > 56.9 µM | TGI (HS 578T breast): 41.1 µM | TGI (OVCAR-8 ovarian): 17.1 µM | TGI (SF-539 CNS): 33 µM | TGI (NCI-H23 lung): > 72 µM | TGI (KM12 colon): > 49.7 µM | TGI (RXF 393 renal): 16.5 µM | TGI (PC-3 prostate): > 53.6 µM | TGI (M14 melanoma): > 95.7 µM | TGI (MDA-MB-435): > 100 µM | TGI (EKVX NSCLC): 46.4 µM | TGI (MDA-MB-231 breast): > 100 µM | TGI (T-47D breast): > 100 µM

CC(C)[Si]1(C(C)C)OCC2OC(N3C(=O)NC(=O)C[C@@H]3C(O)c3ccccc3)CC2O[Si](C(C)C)(C(C)C)O1 (some centres not stated)
TGI (HCT-15 colon): 18.1 µM | TGI (HOP-92 NSCLC): 20.4 µM | TGI (HL-60(TB) leukemia): 21.6 µM | TGI (UO-31 renal): 24.8 µM | TGI (SK-MEL-28 melanoma): 12.9 µM | TGI (UACC-257 melanoma): 16.5 µM | TGI (SK-MEL-5 melanoma): 26.3 µM | TGI (IGROV1 ovarian): 17.6 µM | TGI (NCI-H226 lung): 8.9 µM | TGI (NCI/ADR-RES ovarian): 13.4 µM | TGI (SN12C renal): 12.2 µM | TGI (NCI-H522 lung): 7.77 µM | TGI (COLO 205 colon): 25.8 µM | TGI (UACC-62 melanoma): 22.4 µM | TGI (NCI-H460 lung): 34.3 µM | TGI (MOLT-4 leukemia): 9.31 µM | TGI (ACHN renal): 19.7 µM | TGI (HCT-116 colon): 9.79 µM | TGI (RPMI-8226 leukemia): 12.2 µM | TGI (SW-620 colon): 9 µM | TGI (LOX IMVI melanoma): 10.7 µM | TGI (SK-OV-3 ovarian): 11.8 µM | TGI (BT-549 breast): 33.4 µM | TGI (MALME-3M melanoma): 12.8 µM | TGI (HOP-62 NSCLC): 27.5 µM | TGI (CCRF-CEM leukemia): 8.46 µM | TGI (OVCAR-3 ovarian): 11.4 µM | TGI (786-0 renal): 12.5 µM | TGI (U251 CNS): 9.06 µM | TGI (SF-268 CNS): 10.6 µM | TGI (A498 renal): 17.7 µM | TGI (SNB-75 CNS): 17.6 µM | TGI (OVCAR-5 ovarian): 27.6 µM | TGI (SF-295 CNS): 9.97 µM | TGI (MCF7 breast): 15.2 µM | TGI (A549 NSCLC): 24.1 µM | TGI (SR leukemia): > 19.8 µM | TGI (MDA-N): 9.61 µM | TGI (HT29 colon): 6.59 µM | TGI (K-562 leukemia): > 30.2 µM | TGI (OVCAR-4 ovarian): 14.8 µM | TGI (SNB-19 CNS): 25.4 µM | TGI (DU-145 prostate): 26.5 µM | TGI (HCC-2998 colon): 4.46 µM | TGI (CAKI-1 renal): 30.7 µM | TGI (SK-MEL-2 melanoma): 27.3 µM | TGI (TK-10 renal): 24 µM | TGI (HS 578T breast): 8.71 µM | TGI (OVCAR-8 ovarian): 17.3 µM | TGI (SF-539 CNS): 32.4 µM | TGI (NCI-H23 lung): 21.6 µM | TGI (KM12 colon): 7.1 µM | TGI (RXF 393 renal): 13.4 µM | TGI (PC-3 prostate): 15.3 µM | TGI (M14 melanoma): 30.1 µM | TGI (MDA-MB-435): 18.2 µM | TGI (EKVX NSCLC): 23.4 µM | TGI (MDA-MB-231 breast): 12.1 µM | TGI (T-47D breast): 14.7 µM

CC(C)NCC(O)c1cc(OCc2ccccc2)c(OCc2ccccc2)cc1NC(=O)CCC(=O)O (configuration not stated)
TGI (HCT-15 colon): 12.4 µM | TGI (HOP-92 NSCLC): 19 µM | TGI (HL-60(TB) leukemia): 15.4 µM | TGI (UO-31 renal): 15 µM | TGI (SK-MEL-28 melanoma): 9.37 µM | TGI (UACC-257 melanoma): 26.4 µM | TGI (SK-MEL-5 melanoma): 4.97 µM | TGI (IGROV1 ovarian): 24.2 µM | TGI (NCI-H226 lung): 33.2 µM | TGI (NCI/ADR-RES ovarian): 28.7 µM | TGI (SN12C renal): 24.3 µM | TGI (NCI-H522 lung): 11.7 µM | TGI (COLO 205 colon): 4.01 µM | TGI (UACC-62 melanoma): 8.69 µM | TGI (NCI-H460 lung): 3.71 µM | TGI (MOLT-4 leukemia): 14.8 µM | TGI (ACHN renal): 13.1 µM | TGI (HCT-116 colon): 17.9 µM | TGI (RPMI-8226 leukemia): 8.65 µM | TGI (SW-620 colon): 7.51 µM | TGI (LOX IMVI melanoma): 2.97 µM | TGI (SK-OV-3 ovarian): 29.2 µM | TGI (BT-549 breast): 31.1 µM | TGI (MALME-3M melanoma): 28.6 µM | TGI (HOP-62 NSCLC): 29.7 µM | TGI (CCRF-CEM leukemia): 13 µM | TGI (OVCAR-3 ovarian): 28.2 µM | TGI (786-0 renal): 20.9 µM | TGI (U251 CNS): 18.2 µM | TGI (SF-268 CNS): 22.7 µM | TGI (A498 renal): 26 µM | TGI (SNB-75 CNS): 23.9 µM | TGI (OVCAR-5 ovarian): 30.6 µM | TGI (SF-295 CNS): 15.7 µM | TGI (MCF7 breast): 19 µM | TGI (A549 NSCLC): 24.5 µM | TGI (SR leukemia): 9.01 µM | TGI (MDA-N): 5.97 µM | TGI (HT29 colon): 12.9 µM | TGI (K-562 leukemia): 4.32 µM | TGI (OVCAR-4 ovarian): 24.8 µM | TGI (SNB-19 CNS): 28.3 µM | TGI (DU-145 prostate): 25.8 µM | TGI (HCC-2998 colon): 6.47 µM | TGI (CAKI-1 renal): 21.3 µM | TGI (SK-MEL-2 melanoma): 3.32 µM | TGI (TK-10 renal): 22.5 µM | TGI (HS 578T breast): 30.7 µM | TGI (OVCAR-8 ovarian): 21.5 µM | TGI (SF-539 CNS): 30.9 µM | TGI (NCI-H23 lung): 26.5 µM | TGI (KM12 colon): 9.51 µM | TGI (RXF 393 renal): 18.6 µM | TGI (PC-3 prostate): 21.3 µM | TGI (M14 melanoma): 3.48 µM | TGI (MDA-MB-435): 17.4 µM | TGI (EKVX NSCLC): 26.9 µM | TGI (MDA-MB-231 breast): 20.9 µM | TGI (T-47D breast): 25.7 µM
